# From patent US20260315446A1, “ANTIFUNGAL COMPOUNDS AND USES THEREOF” (priority 2023, published 2026)
# How the values were obtained:
# [1] = system: C. neoformans growth versus IL-2 in murine T cells; assay: Therapeutic index score (immunosuppressive fold change to antifungal fold change relative to FK506); parameters: species or system Cryptococcus neoformans; mouse; conditions: for Therapeutic Index Score: FK506 = 1.0
# Summary of the method: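 TIscore = ratio of immunosuppressive fold change (IL-2, murine T cells) to antifungal fold change (C. neoformans), both relative to FK506; values >1.0 denote greater fungal specificity. Derived from in vitro fungal versus mammalian calcineurin inhibition data.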
# [2] = target: T1, C. albicans FKBP12 and CnA-CnB-calmodulin complex (UniProt C4YFI3+C4YS24+P28870); assay: Biolayer interferometry ternary complex formation; assay type: binding, Candida albicans; conditions: BLI, 10 μM compound, steady-state and kinetic analyses
# T1 construct: N-tagged CnA 54-609, untagged CnB and calmodulin co-expressed in Tni insect cells
# T1 sequence (P28870 whole entry): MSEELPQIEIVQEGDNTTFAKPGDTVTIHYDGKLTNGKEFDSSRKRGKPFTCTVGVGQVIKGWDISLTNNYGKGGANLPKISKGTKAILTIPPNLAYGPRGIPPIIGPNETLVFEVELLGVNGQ
# T1 sequence (C4YFI3 54-609): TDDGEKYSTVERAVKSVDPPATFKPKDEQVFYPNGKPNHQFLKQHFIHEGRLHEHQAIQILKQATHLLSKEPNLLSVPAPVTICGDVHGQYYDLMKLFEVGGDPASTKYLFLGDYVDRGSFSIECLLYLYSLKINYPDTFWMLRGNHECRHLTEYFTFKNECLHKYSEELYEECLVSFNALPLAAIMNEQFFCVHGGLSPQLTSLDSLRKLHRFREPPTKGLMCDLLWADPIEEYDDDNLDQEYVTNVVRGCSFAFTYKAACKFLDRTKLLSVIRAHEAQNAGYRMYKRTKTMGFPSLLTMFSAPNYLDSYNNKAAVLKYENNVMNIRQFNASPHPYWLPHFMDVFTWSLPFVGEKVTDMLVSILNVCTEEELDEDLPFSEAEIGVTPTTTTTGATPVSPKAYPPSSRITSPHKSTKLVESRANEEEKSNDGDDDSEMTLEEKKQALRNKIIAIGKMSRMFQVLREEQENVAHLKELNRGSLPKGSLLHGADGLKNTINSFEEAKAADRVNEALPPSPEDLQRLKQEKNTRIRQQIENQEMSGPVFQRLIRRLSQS
# T1 sequence (C4YS24 1-173): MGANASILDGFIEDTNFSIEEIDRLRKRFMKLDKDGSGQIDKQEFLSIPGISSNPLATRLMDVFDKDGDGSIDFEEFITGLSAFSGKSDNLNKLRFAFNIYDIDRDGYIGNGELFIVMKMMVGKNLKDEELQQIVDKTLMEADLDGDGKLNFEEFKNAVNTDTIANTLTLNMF
# T1 sequence (P23286 whole entry partner): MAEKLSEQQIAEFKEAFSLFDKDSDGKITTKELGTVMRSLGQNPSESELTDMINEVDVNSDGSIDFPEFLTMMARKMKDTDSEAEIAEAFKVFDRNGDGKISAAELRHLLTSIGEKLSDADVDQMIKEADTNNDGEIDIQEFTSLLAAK
# Description: To better understand the relationship between structure and activity of these analogs, FK506 analog, JH-FK-02 was tested, and one FK520 analog, JH-FK-05 was tested, for their binding dynamics to CnA and CnB by biolayer interferometry (BLI). Purified and biotinylated (Avi-tagged) FKBP12 from A. fumigatus and C. albicans were loaded onto streptavidin sensors in the presence of an inhibitor, followed by titration of the respective CnA-CnB-calmodulin complex, also in the presence of an inhibitor. Data were double referenced using parallel reference sensors and sample blanks.
# Biolayer interferometry (BLI) experiments were completed using either A. fumigatus or C. albicans FKBP12 and CnA/CnB/calmodulin complexes, along with compounds FK506, APX879, FK520, JH-FK-02, and JH-FK-05. Initial buffer (25 mM Tris, 200 mM NaCl, and 1 mM TCEP [pH 8.0]) was prepared using 1 M Tris-HCl (pH 8.0, catalog no. T1080; Teknova), 5 M sodium chloride (catalog no. S0251; Teknova), TCEP (catalog no. M115; Soltec Ventures, Inc.), and was readjusted to pH 8 before sterile filtering. […]
# Data were processed and analyzed using ForteBio Data Analysis software version 11.1.3.10. […] Kinetics data were analyzed using the “association and dissociation curve fitting” option utilizing a 1:1 model. […]
Compound,"Therapeutic index ([1]; Example 3, C. neoformans H99, FK506 = 1.0)","Therapeutic Index Score ([1]; Table 12, Example 4)","Therapeutic Index Score ([1]; Table 13, Example 4)",affinity of target complex formation in presence of analog [2],"therapeutic index score (TIscore) ([1]; Example 1, C. neoformans MIC and IL-2 IC50, FK506 = 1.0)"
"C=CCC1C=C(C)CC(C)CC(OC)C2OC(O)(C(=O)C(=O)N3CCCCC3C(=O)OC(C(C)=CC3CCC(O)C(OC)C3)C(C)C(O)CC1=O)C(C)CC2OC (stereo not drawn) [FK506, reference compound]",1.0,1.0,1.0,,
CC[C@@H]1/C=C(\C)C[C@H](C)C[C@H](OC)[C@H]2O[C@@](O)(C(=O)C(=O)N3CCCC[C@H]3C(=O)O[C@H](/C(C)=C/[C@@H]3CC[C@@H](O)[C@H](OC)C3)[C@H](C)[C@@H](O)C/C1=N/NC(C)=O)[C@H](C)C[C@@H]2OC [JH-FK-05],,,,affinities similar to those of the parent compounds,
C=CC[C@@H]1/C=C(\C)C[C@H](C)C[C@H](OC)[C@H]2O[C@@](O)(C(=O)C(=O)N3CCCC[C@H]3C(=O)O[C@H](/C(C)=C/[C@@H]3CC[C@@H](O)[C@H](OC)C3)[C@H](C)[C@@H](O)C/C1=N/NC(=O)CC)[C@H](C)C[C@@H]2OC [JH-FK-02],,,,affinities similar to those of the parent compounds,9.7
